# What was measured:
# [1] = biological target: GABA-A receptor; anion channel; experiment: (§1) Binding affinity for Diazepam-Sensitive fraction of GABA-A benzodiazepine receptors; assay type: protein-complex assay
# [2] = biological target: T1, GABA-A receptor; anion channel (Rattus norvegicus) (UniProt O09028+P15431+P18506+P18508+P19969+P20236+P23574+P23576+P28471+P28473+P30191+P62813+P63079+P63138+Q91ZM7+Q9ES14); experiment: GABA shift ratio at Diazepam sensitive fraction of GABA-A benzodiazepine receptor; assay type: protein-complex assay
# [3] = biological target: T1, GABA-A receptor; anion channel (Rattus norvegicus); experiment: Selectivity for Diazepam insensitive compared to sensitive GABA-A benzodiazepine receptor fractions; assay type: protein-complex assay
# [4] = biological target: GABA-A receptor; anion channel; experiment: Binding affinity for Diazepam-Insensitive fraction of GABA-A benzodiazepine receptors; assay type: protein-complex assay, Rattus norvegicus
# [5] = biological target: GABA-A receptor; anion channel; experiment: as §1; assay type: protein-complex assay, Rattus norvegicus
# [6] = biological target: GABA-A receptor; anion channel; experiment: Inhibition of Diazepam-Insensitive fraction of GABA-A benzodiazepine receptors; assay type: protein-complex assay, Rattus norvegicus
# [7] = biological target: GABA-A receptor; anion channel; experiment: Inhibition of Diazepam-Insensitive faction of GABA-A benzodiazepine receptors; assay type: protein-complex assay, Rattus norvegicus
Compound,Ki [1],GABA shift [2],Ratio [3],Ki [4],Ki [5],IC50 [6],IC50 [7]
CCC(CC)OC(=O)c1ncn2c1CN(C)C(=O)c1cc(Cl)ccc1-2,26.9 nM,158,4.6,123 nM,,,
CC(C)OC(=O)c1ncn2c1CN(C)C(=O)c1cc(Cl)ccc1-2,10.5 nM,123,0.8,8.8 nM,,,
CN1Cc2c(C(=O)OC(C)(C)C)ncn2-c2ccsc2C1=O [RO-194603],,,13,2.6 nM,0.2 nM,,
CN1Cc2c(C(=O)OC(C)(C)C)ncn2-c2ccc(Cl)cc2C1=O,4 nM,116,0.4,1.7 nM,,,
CN1Cc2c(C(=O)OCC3CC3)ncn2-c2ccc(Cl)cc2C1=O,,176,4.1,39.8 nM,9.7 nM,,
CCCOC(=O)c1ncn2c1CN(C)C(=O)c1cc(Cl)ccc1-2,24.8 nM,128,1.3,33.3 nM,,,
COC(=O)c1ncn2c1CN(C)C(=O)c1sccc1-2,0.9 nM,,57,52 nM,,,
CCCOC(=O)c1ncn2c1CN(C)C(=O)c1sccc1-2,1.4 nM,,27,38 nM,,,
COC(=O)c1ncn2c1CN(C)C(=O)c1cc(Cl)ccc1-2,,,,124 nM,,,
CN1Cc2c(C(=O)OCCC(C)(C)C)ncn2-c2ccc(Cl)cc2C1=O,184 nM,201,,,,> 1000 nM,
COC(=O)c1ncn2c1CN(C)C(=O)c1ccccc1-2,,99,,,6.3 nM,,> 1000 nM
CCOC(=O)c1ncn2c1C1CCCN1C(=O)c1cc(Cl)ccc1-2 (stereo not drawn) [RO-145975],72 nM,,0.73,53 nM,,,
CN(C)N=Nc1ccc2c(c1)C(=O)N(C)Cc1c(C(=O)OC(C)(C)C)ncn1-2,,1.12,,,3490 nM,> 1000 nM,
CN1Cc2c(C(=O)OCC(C)(C)C)ncn2-c2ccc(Cl)cc2C1=O,,177,0.67,300 nM,499 nM,,
CN1Cc2c(C(=O)OC(C)(C)C)ncn2-c2ccc(N=C=S)cc2C1=O,3.7 nM,1.35,0.73,2.7 nM,,,
CN1Cc2c(C(=O)OC(C)(C)C)ncn2-c2ccccc2C1=O,1.1 nM,105,19.2,21.2 nM,,,
CCOC(=O)c1ncn2c1[C@@H]1CCCN1C(=O)c1ccccc1-2,0.9 nM,,50,45 nM,,,
CN1Cc2c(C(=O)OC(C)(C)C)ncn2-c2ccc(N=[N+]=[N-])cc2C1=O,2.1 nM,1.76,0.2,0.43 nM,,,
CN1Cc2c(C(=O)OC(C)(C)C)ncn2-c2ccc([N+](=O)[O-])cc2C1=O,,1.46,0.77,10.8 nM,14 nM,,
CCOC(=O)c1ncn2c1CN(C)C(=O)c1ccccc1-2 [RO-147437],,98,165,214 nM,1.3 nM,,
CCOC(=O)c1ncn2c1CN(C)C(=O)c1cc(Cl)ccc1-2 [Ro-151310],,,,,5.4 nM,,
CN1Cc2c(C(=O)OC(C)(C)C)ncn2-c2ccc(Br)cc2C1=O,,1.06,0.17,2.8 nM,16 nM,,
CN1Cc2c(C(=O)OC(C)(C)C)ncn2-c2ccc(I)cc2C1=O,7 nM,1.22,0.21,1.5 nM,,,
